Read-outs that look alike come from different tables or passages of the source. Residues, ends and D or L forms follow the SMILES beside them. No end group written: not given here.
What was measured:
[1] = tested on: Staphylococcus aureus ATCC 29213; format: cell-based
Description: (§1) To measure the antimicrobial activity of our selected putative AMPs in vitro, broth microdilution assays were conducted to determine the minimum inhibitory and minimum bactericidal concentrations (MICs and MBCs, respectively), as outlined by the Clinical and Laboratory Standards Institute [CLSI] ([2015]). The adaptations for testing cationic AMPs, as described previously (Wiegand et al., [2008]), were incorporated. The selected peptides were tested against laboratory isolates of E. coli 25922 and S. aureus 29213, which were purchased from the American Type Culture Collection (ATCC; Manassas, VA, USA). Bacteria from frozen stocks were streaked onto nonselective Columbia blood agar with 5% sheep blood (Oxoid) and incubated for 18–24 h at 37°C. To ensure the uniform colony health before the assay, 2–4 colonies were streaked onto a new agar plate and incubated for another 18–24 h at 37°C on the next day. To create a standardized bacterial inoculum, isolated colonies were suspended in Mueller‐Hinton Broth (MHB; Sigma‐Aldrich, St. Louis, MO, USA). The suspension was adjusted to an optical density of 0.08–0.1 at 600 nm, which corresponds to a 0.5 McFarland standard of approximately 1–2 × 10^8 colony‐forming units (CFU)/mL. The inoculum was then diluted 1:250, resulting in a final concentration of 5 ± 3 × 10^5 CFU/mL. The target bacterial density was confirmed by measuring the total viability counts from the final tested inoculum.
(§2) The selected putative AMPs were purchased from and synthesized by GenScript (Piscataway, NJ, USA) in lyophilized format. The peptides were stored at −20°C and were suspended in sterile ultrapure water prior to testing. A two‐fold serial dilution of 1280 to 2.5 μg/mL was prepared in sterile 96‐well polypropylene microtiter plates (Greiner Bio‐One #650261, Kremsmünster, Austria). Then, 100 μL of the standardized bacterial inoculum was added to each well, resulting in a final AMP testing range of 128 to 0.25 μg/mL. The MIC values were determined as the lowest peptide concentration in which no visible bacterial growth was observed after a 20–24 h incubation at 37°C. To determine the MBC values, well contents of the MIC and the two adjacent wells containing the two‐ and four‐fold higher peptide concentrations were plated onto nonselective nutrient agar. The concentration in which 99.9% of the inoculum was killed after an incubation for 24 h at 37°C was reported as the MBC.
(§3) In our tests, we used Ranatuerin‐4—a known AMP from the American bullfrog (Goraya et al., [1998]), and an in‐house peptide [TKPKG]3 (OT15) as the positive and negative control peptides, respectively. We note that OT15 was truncated and derived from a negative control peptide [TKPKG]4 (OT20), not antimicrobial but sharing similar characteristics to AMPs, used in previous studies (Horváti et al., [2017]).

[2] = tested on: Escherichia coli ATCC 25922; format: cell-based
Description: as §1, §2, §3

[3] = broth microdilution (CLSI, adapted for cationic AMPs), MHB, 5 ± 3 × 10^5 CFU/mL, 20–24 h at 37°C, tested 0.25–128 μg/mL, range from three independent experiments in duplicate, one maximum and one minimum data point dropped
[4] = concentration killing 99.9% of inoculum, plated on nutrient agar, 24 h at 37°C, range from three independent experiments in duplicate, one maximum and one minimum data point dropped

Compound | MIC, S. aureus ATCC 29213 ([1]; ATCC 29213) | MBC, S. aureus ATCC 29213 ([1]; ATCC 29213, 24 h) | MIC, E. coli ATCC 25922 ([2]; ATCC 25922) | MBC, E. coli ATCC 25922 ([2]; ATCC 25922, 24 h) | MIC, S. aureus ATCC 29213 [1, 3] | MBC, S. aureus ATCC 29213 [1, 4] | MIC, E. coli ATCC 25922 [2, 3] | MBC, E. coli ATCC 25922 [2, 4]
VWEFFEAGAGLRASNASKKIYGVAKRFRR [DiVi1] | > 128 µg/mL | > 128 µg/mL | > 128 µg/mL | > 128 µg/mL |  |  |  | 
QVWKRR [HoSa8, putative AMP mined from UniProt Q9BXP8, Homo sapiens] |  |  |  |  | > 128 µg/mL | > 128 µg/mL | > 128 µg/mL | > 128 µg/mL
GLQKLINKIKSQMSRFSTKTNKICGP [HoSa1] | 128 µg/mL |  | 16 µg/mL | 16 to 32 µg/mL |  |  |  | 
RFGRFLRKIRRFRPKVTITIQGSARFG [Chicken CATH-2, reference compound] | 32 µg/mL | 32 µg/mL | 8 to 16 µg/mL | 8 to 16 µg/mL |  |  |  | 
CSCC[C@H](NC(=O)CNC(=O)[C@H](CO)NC(=O)[C@H](CCCNC(=N)N)NC(=O)[C@@H](NC(=O)[C@H](CO)NC(=O)[C@H](Cc1ccccc1)NC(=O)CNC(=O)[C@H](Cc1ccccc1)NC(=O)[C@@H](NC(=O)[C@H](CO)NC(=O)[C@H](CCCNC(=N)N)NC(=O)[C@H](CCCNC(=N)N)NC(=O)[C@@H](NC(=O)[C@H](C)NC(=O)[C@H](CS)NC(=O)[C@H](Cc1ccccc1)NC(=O)[C@H](CCC(N)=O)NC(=O)[C@H](C)NC(=O)[C@H](CCCNC(=N)N)NC(=O)CNC(=O)[C@H](C)NC(=O)[C@H](Cc1ccc(O)cc1)NC(=O)[C@H](C)NC(=O)[C@H](Cc1c[nH]c2ccccc12)NC(=O)[C@H](CCC(N)=O)NC(=O)[C@H](CO)NC(=O)[C@H](Cc1c[nH]c2ccccc12)NC(=O)[C@@H](N)CCCNC(=N)N)C(C)C)C(C)C)C(C)C)C(=O)N[C@H](C(=O)N[C@@H](CS)C(=O)N[C@@H](CCCNC(=N)N)C(=O)N1CCC[C@H]1C(=O)N[C@@H](CCCNC(=N)N)C(=O)N[C@@H](CCCNC(=N)N)C(=O)O)C(C)C [MuMu1] (H-RWSQWAYAGRAQFCAVRRSVFGFSVRSGMVCRPRR-OH; N-terminus and C-terminus assumed) | > 128 µg/mL | > 128 µg/mL | ≥ 128 µg/mL |  |  |  |  | 
VLKKSEIRIDFISRTILHI [MoIn1, putative AMP mined from UniProt Q09WW0, Morus indica] |  |  |  |  | > 128 µg/mL | > 128 µg/mL |  | 
RVKRFWPLVPVAINTVAAGINLYKAIRRK [Chicken CATH-3, reference compound] | 2 µg/mL | 2 to 4 µg/mL | 2 to 4 µg/mL | 2 to 4 µg/mL |  |  |  | 
SYWWWGFHKNVIDRREAFYADLAEKKKAEN [CaGl1] | > 128 µg/mL | > 128 µg/mL | > 128 µg/mL | > 128 µg/mL |  |  |  | 
VMRSAGSRSSKR [OrSa6, putative AMP mined from UniProt Q5VRI5, Oryza sativa subsp. japonica] |  |  |  |  | > 128 µg/mL | > 128 µg/mL | > 128 µg/mL | > 128 µg/mL
YVSPVAIVKGLNIPL [Ovipin, reference compound] | > 128 µg/mL |  | > 128 µg/mL |  |  |  |  | 
RSIIRNGIRTLTWRKETKRKKK [ArTh11] |  |  | 64 to 128 µg/mL |  | > 128 µg/mL | > 128 µg/mL | 64 to 128 µg/mL | 
ARLDVAAEFRKKWNKWALSRGKR [SuSc1] |  |  |  |  | > 128 µg/mL | > 128 µg/mL | 128 µg/mL | 
GLIKRIIRQKR [GaGa2] | > 128 µg/mL |  | 128 µg/mL |  |  |  |  | 
CC[C@H](C)[C@H](NC(=O)[C@H](CC(C)C)NC(=O)[C@H](CC(=O)O)NC(=O)[C@H](CCCNC(=N)N)NC(=O)[C@H](CO)NC(=O)[C@H](CS)NC(=O)[C@H](Cc1c[nH]cn1)NC(=O)[C@H](Cc1c[nH]cn1)NC(=O)[C@H](Cc1c[nH]cn1)NC(=O)[C@H](Cc1ccc(O)cc1)NC(=O)[C@H](CC(C)C)NC(=O)[C@H](Cc1ccccc1)NC(=O)[C@H](CC(N)=O)NC(=O)[C@H](CC(C)C)NC(=O)[C@H](CC(C)C)NC(=O)[C@H](Cc1ccc(O)cc1)NC(=O)[C@H](CO)NC(=O)[C@H](CS)NC(=O)[C@@H](NC(=O)[C@H](Cc1c[nH]c2ccccc12)NC(=O)[C@H](Cc1ccccc1)NC(=O)[C@@H](NC(=O)[C@H](Cc1c[nH]c2ccccc12)NC(=O)[C@H](CC(N)=O)NC(=O)[C@H](CCCCN)NC(=O)[C@H](C)NC(=O)[C@H](Cc1c[nH]c2ccccc12)NC(=O)[C@H](CC(=O)O)NC(=O)[C@H](Cc1c[nH]c2ccccc12)NC(=O)[C@H](C)N)C(C)C)[C@@H](C)O)C(=O)N[C@@H](CCCNC(=N)N)C(=O)N[C@@H](CCCNC(=N)N)C(=O)O [ScPo1] (H-AWDWAKNWVFWTCSYLLNFLYHHHCSRDLIRR-OH; N-terminus and C-terminus assumed) | > 128 µg/mL | > 128 µg/mL | > 128 µg/mL | > 128 µg/mL |  |  |  | 
FWNLNKKKKFFYKTVKNSIGQVILRDMSNN [DiDi2] | > 128 µg/mL | > 128 µg/mL | 16 µg/mL | 16 µg/mL |  |  |  | 
GRGRPKGRGRGRPRGRPRGSKR [GoGo1] |  |  |  |  | > 128 µg/mL | > 128 µg/mL | 64 µg/mL | 
FLEKPPGPLGARPLGGK [MuMu4, putative AMP mined from UniProt Q9Z0L3, Mus musculus] |  |  |  |  | > 128 µg/mL | > 128 µg/mL | > 128 µg/mL | > 128 µg/mL
QFFLPMILRLYVSRLFISKL [CaGl2, putative AMP mined from UniProt P05040, Candida glabrata] |  |  |  |  | > 128 µg/mL | > 128 µg/mL | > 128 µg/mL | > 128 µg/mL
RIRGHTIKG [DrMe6, putative AMP mined from UniProt O46201, Drosophila melanogaster] |  |  |  |  | > 128 µg/mL | > 128 µg/mL | > 128 µg/mL | > 128 µg/mL
GVLKKVIRHKR [HoSa6, putative AMP mined from UniProt P24821, Q29116; Homo sapiens, Sus scrofa] |  |  |  |  | > 128 µg/mL | > 128 µg/mL | > 128 µg/mL | > 128 µg/mL
FMRFGKRFMRFGRFGKSAEVENNIQIAAKQS [LySt2] | > 128 µg/mL | > 128 µg/mL | > 128 µg/mL | > 128 µg/mL |  |  |  | 
WIIQCWWRQVLEKLLAKRRR [HoSa4] | 64 to 128 µg/mL |  |  |  | 64 to 128 µg/mL |  | 32 µg/mL | 32 µg/mL
WLLVLQRGHRLASIKHVCQLSERKR [DaRe1] | > 128 µg/mL | > 128 µg/mL | 32 to 64 µg/mL | 32 to 64 µg/mL |  |  |  | 
